Reference: patent US20260234139A1, “PGDH INHIBITORS AND METHODS OF MAKING AND USING” (Epirium Bio Inc., priority 2023, published 2026)

Experiments:
[1] = target: T1, 15-PGDH/HPGD (Homo sapiens, UniProt P15428); assay: hPGDH inhibitor screening biochemical assay; conditions: 10 nM enzyme, 15 μM Prostaglandin E2, 0.25 mM NAD, fluorescence ex/em 340/485 nm
T1 construct: purchased R&D System 5660-DH
T1 sequence (P15428 1-266): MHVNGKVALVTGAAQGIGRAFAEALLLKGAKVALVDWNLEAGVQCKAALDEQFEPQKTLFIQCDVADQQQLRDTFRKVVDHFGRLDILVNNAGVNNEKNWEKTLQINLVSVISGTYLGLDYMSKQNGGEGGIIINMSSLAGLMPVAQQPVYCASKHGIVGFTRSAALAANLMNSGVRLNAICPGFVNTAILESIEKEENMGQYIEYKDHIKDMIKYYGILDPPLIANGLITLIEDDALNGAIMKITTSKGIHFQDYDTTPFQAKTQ
Procedure: A hydroxyprostaglandin dehydrogenase inhibition screening biochemical assay can be performed to assess the synthesized inhibitors provided herein. Provided herein is an exemplary biochemical assay for hPGDH inhibitor screening.
The in vitro biochemical assay can be performed in white, 384 plates in total 20 μl reaction volume consisting of 10 nM of 15-PGDH/HPGD (R&D System #5660-DH), 15 μM Prostaglandin E2 (Sigma, Cat #P5640-10 MG) and 0.25 mM B-Nicotinamide adenine dinucleotide sodium salt (Sigma, Cat #N0632-5G) made in reaction buffer (50 mM Tris-HCl, pH 7.5, 0.01% Tween 20) at 10-point dose response curve for test/tool compounds. Briefly, 5 μl (4×) of compounds solution and 5 μl (final concentration, 10 nM) of enzyme solution is added to white 384 well plates and incubated for 10 mins at 37° C. 5 μl (4×) of Prostaglandin E2 and 5 μl (4×) of β-Nicotinamide adenine dinucleotide sodium salt is added to the wells and incubated for 10 mins at room temperature. Fluorescence is recorded at ex/em=340 nm/485 nm.

[2] = tested on: A549; assay: A549 EC50 (cell assay, method not described); assay type: cell-based; conditions: Homo sapiens, A549, A549

IC50 [1] [nM]	EC50 [2] [nM]	SMILES
< 100	100 to 1000	CC(C)OC[C@H](O)c1cnc2c(cnn2-c2ccc(C(=O)O)cc2)c1 [Compound 48A]
< 100	< 100	CC(C)OC[C@@H](O)c1cnc2c(cnn2-c2ccc(C(=O)O)cc2)c1 [Compound 48B]
< 100	≥ 1000	CC(C)OC[C@H](O)c1cnc2c(ccn2-c2ccc(C(=O)O)cc2)n1 [Compound 49A]
< 100	100 to 1000	CC(C)OC[C@@H](O)c1cnc2c(ccn2-c2ccc(C(=O)O)cc2)n1 [Compound 49B]
< 100	< 100	O[C@@H](c1cnc2c(cnn2-c2cccc(-c3nnc[nH]3)c2)c1)C1CC2CC2C1 (stereo partly drawn) [Compound 50A]
< 100	< 100	O[C@H](c1cnc2c(cnn2-c2cccc(-c3nnc[nH]3)c2)c1)C1CC2CC2C1 (stereo partly drawn) [Compound 50B]
< 100	100 to 1000	O[C@H](c1cnc2c(cnn2-c2cccc(-c3nnc[nH]3)c2)c1)C1C2CCCCC21 (stereo partly drawn) [Compound 51A]
100 to 1000	100 to 1000	O[C@@H](c1cnc2c(cnn2-c2cccc(-c3nnc[nH]3)c2)c1)C1C2CCCCC21 (stereo partly drawn) [Compound 51B]
< 100	100 to 1000	O[C@H](c1cnc2c(cnn2-c2cccc(-c3nnc[nH]3)c2)c1)C1CCOCC1 [Compound 52A]
< 100	< 100	O[C@@H](c1cnc2c(cnn2-c2cccc(-c3nnc[nH]3)c2)c1)C1CCOCC1 [Compound 52B]
100 to 1000	100 to 1000	CCOC(C)(C)[C@H](O)c1cnc2c(cnn2-c2ccc(C(=O)O)cc2)c1 [Compound 53A]
< 100	< 100	CCOC(C)(C)[C@@H](O)c1cnc2c(cnn2-c2ccc(C(=O)O)cc2)c1 [Compound 53B]
< 100	< 100	COC(C)(C)C[C@@H](O)c1cnc2c(ccn2-c2cccc(-c3nnc[nH]3)c2)c1 [Compound 54A]
< 100	100 to 1000	COC(C)(C)C[C@H](O)c1cnc2c(cnn2-c2cccc(-c3nnc[nH]3)c2)c1 [Compound 54B]
< 100	100 to 1000	COC(C)(C)CC[C@H](O)c1cnc2c(cnn2-c2cccc(-c3nnc[nH]3)c2)c1 [Compound 55A]
< 100	< 100	COC(C)(C)CC[C@@H](O)c1cnc2c(cnn2-c2cccc(-c3nnc[nH]3)c2)c1 [Compound 55B]
< 100	100 to 1000	CC(C)(O)CC[C@H](O)c1cnc2c(cnn2-c2cccc(-c3nnc[nH]3)c2)c1 [Compound 56A]
< 100	100 to 1000	CC(C)(O)CC[C@@H](O)c1cnc2c(cnn2-c2cccc(-c3nnc[nH]3)c2)c1 [Compound 56B]
≥ 1000	≥ 1000	CCCOC(C)(C)[C@H](O)c1cnc2c(cnn2-c2cccc(-c3nnc[nH]3)c2)c1 [Compound 57A]
< 100	< 100	CCCOC(C)(C)[C@@H](O)c1cnc2c(cnn2-c2cccc(-c3nnc[nH]3)c2)c1 [Compound 57B]
≥ 1000	≥ 1000	CCOC1([C@H](O)c2cnc3c(cnn3-c3ccc(C(=O)O)cc3)c2)CC1 [Compound 58A]
< 100	100 to 1000	CCOC1([C@@H](O)c2cnc3c(cnn3-c3ccc(C(=O)O)cc3)c2)CC1 [Compound 58B]
< 100	100 to 1000	COC1([C@@H](O)c2cnc3c(cnn3-c3cccc(-c4nnc[nH]4)c3)c2)CC1 [Compound 59A]
100 to 1000	≥ 1000	COC1([C@H](O)c2cnc3c(cnn3-c3cccc(-c4nnc[nH]4)c3)c2)CC1 [Compound 59B]
< 100	< 100	CC(C)OC[C@@H](O)c1cnc2c(cnn2-c2ccc3nc(N4CCOCC4)nn3c2)c1 [Compound 60A]
≥ 1000	100 to 1000	CC(C)OC[C@H](O)c1cnc2c(cnn2-c2ccc3nc(N4CCOCC4)nn3c2)c1 [Compound 60B]
< 100	< 100	CC(C)(OCC(F)F)[C@@H](O)c1cnc2c(cnn2-c2cccc(-c3nnc[nH]3)c2)c1 [Compound 61A]
≥ 1000	100 to 1000	CC(C)(OCC(F)F)[C@H](O)c1cnc2c(cnn2-c2cccc(-c3nnc[nH]3)c2)c1 [Compound 61B]
≥ 1000	≥ 1000	CCOC1([C@H](O)c2cnc3c(cnn3-c3ccc4nc(N5CCOCC5)nn4c3)c2)CC1 [Compound 62A]
100 to 1000	≥ 1000	CCOC1([C@@H](O)c2cnc3c(cnn3-c3ccc4nc(N5CCOCC5)nn4c3)c2)CC1 [Compound 62B]

The remaining lines, values behind:

SMILES	IC50 [1] [nM]	EC50 [2] [nM]
O[C@H](COC1CC1)c1cnc2c(ccn2-c2cccc(-c3nnc[nH]3)c2)n1 [Compound 38A]	< 100	< 100
O[C@@H](COC1CC1)c1cnc2c(ccn2-c2cccc(-c3nnc[nH]3)c2)n1 [Compound 38B]	< 100	100 to 1000
O=C(NC[C@H](O)c1cnc2c(cnn2-c2cccc(-c3nnc[nH]3)c2)c1)C1CC1 [Compound 39A]	≥ 1000	≥ 1000
O=C(NC[C@@H](O)c1cnc2c(cnn2-c2cccc(-c3nnc[nH]3)c2)c1)C1CC1 [Compound 39B]	100 to 1000	≥ 1000
CC(C)CC[C@H](O)c1cnc2c(ccn2-c2ccc(C(=O)O)cc2)n1 [Compound 40A]	< 100	< 100
CC(C)CC[C@@H](O)c1cnc2c(ccn2-c2ccc(C(=O)O)cc2)n1 [Compound 40B]	< 100	< 100
CC(C)OCC[C@H](O)c1cnc2c(ccn2-c2cccc(-c3nnc[nH]3)c2)c1 [Compound 41A]	< 100	100 to 1000
CC(C)OCC[C@@H](O)c1cnc2c(ccn2-c2cccc(-c3nnc[nH]3)c2)c1 [Compound 41B]	< 100	< 100
O=C(O)c1ccc(-n2ncc3cc([C@@H](O)COC4CCC4)cnc32)cc1 [Compound 42A, (R)-4-(5-(2-cyclobutoxy-1-hydroxyethyl)-1H-pyrazolo[3,4-b]pyridin-1-yl)benzoic acid]	< 100	≥ 1000
O=C(O)c1ccc(-n2ncc3cc([C@H](O)COC4CCC4)cnc32)cc1 [Compound 42B]	< 100	< 100
CC(C)(O)C[C@@H](O)c1cnc2c(cnn2-c2cccc(-c3nnc[nH]3)c2)c1 [Compound 43A]	< 100	≥ 1000
CC(C)(O)C[C@H](O)c1cnc2c(cnn2-c2cccc(-c3nnc[nH]3)c2)c1 [Compound 43B]	< 100	< 100
CC(C)OCC[C@@H](O)c1cnc2c(cnn2-c2cccc(-c3nnc[nH]3)c2)c1 [Compound 44A]	< 100	< 100
CC(C)OCC[C@H](O)c1cnc2c(cnn2-c2cccc(-c3nnc[nH]3)c2)c1 [Compound 44B]	< 100	100 to 1000
O=C(O)c1ccc(-n2ccc3nc([C@H](O)C4CC(F)(F)C4)cnc32)cc1 [Compound 46A]	< 100	< 100
O=C(O)c1ccc(-n2ccc3nc([C@@H](O)C4CC(F)(F)C4)cnc32)cc1 [Compound 46B]	< 100	100 to 1000
O=C(O)c1ccc(-n2ccc3nc([C@@H](O)COC4CCC4)cnc32)cc1 [Compound 47A]	< 100	≥ 1000
O=C(O)c1ccc(-n2ccc3nc([C@H](O)COC4CCC4)cnc32)cc1 [Compound 47B]	< 100	< 100
